Experimental data reported in US9315481B2, “Compounds and methods for treating leukemia” (INDIANA UNIVERSITY RESEARCH AND TECHNOLOGY CORPORATION, priority 2012, dated 2016).
Entries after “also recorded” stand apart in the source; their conditions may differ.

Experiments:
Ref-1 = Ref-1 (Homo sapiens, UniProt P27695); test: conventional redox EMSA assay; assay type: biochemical
From the text: (§1) Biochemistry 50, 82-92 (2011). Nyland et al., Design and Synthesis of Novel Quinone Inhibitors Targeted to the Redox Function of Apurinic/Apyrimidinic Endonuclease 1/Redox Enhancing Factor-1 (Ape1/Ref-1). J Med Chem 53, 1200-1210 (2010). Kelley et al., Cancer Drug Discovery and Development (ed Rebecca G. Bagley) Springer (part of Springer Science+Business Media), 2010. Luo et al., Role of the multifunctional DNA repair and redox signaling protein Ape1/Ref-1 in cancer and endothelial cells: Small molecule inhibition of Ape1's redox function. Antioxid Redox Signal 10, 1853-1867 (2008). Georgiadis et al., Evolution of the redox function in mammalian Apurinic/apyrimidinic Mutation Research 643, 54-63 (2008).
Electrophoretic mobility shift assay (EMSA). EMSAs are performed as previously described (Georgiadis, (2008) #15789) with the some modifications. Briefly, for super-shift assay, 6 μg STAT3 antibody (Santa Cruz Biotechnology, Inc, Santa Cruz, Calif.) is pre-incubated with 15 mg nuclear extract from PaCa-2 cells (treated with 50 ng/mL IL-6 for 2 hrs in 2% serum), followed by 1 μg/mL poly(dI-dC).poly(dI-dC) (Amersham Biosciences, Piscataway, N.J.) and 0.1 pmol 5′HEX-labeled double-stranded oligonucleotide DNA (Midland Certified Reagent Company, Midland, Tex.) containing the STAT3 direct repeat consensus sequence for 15 min (Preston, (2005)). For the experiment of APE1 interacting with STAT3, purified APE1 protein is reduced with 2 mM DTT (dithiothreitol) for 10 min and diluted to a final concentration of 4 mg with 0.4 mM DTT in PBS. Reduced APE1 is added to 15 mg nuclear extract as above. The final concentration of DTT in redox reactions is 0.04 mM.

TAIL7 cells = test: standard cell survival assay (ATP assay) of TAIL7 cells; assay type: cell-based; details: Homo sapiens, 96 h
From the text: The compounds described herein decrease survival of leukemia cells.

[1] = Maximum tolerated dose (MTD); details: in vivo, po
From the text: Maximum tolerated dose (MTD). […] Animals were monitored for up to 14 days after termination of dosing.

STAT3 = test: activation status of signaling pathways in T-ALL; assay type: cell-based
Procedure: Western blot analysis. For whole cell lysates, cells are harvested, lysed in RIPA buffer (Santa Cruz Biotechnology; Santa Cruz, Calif.), and protein is quantified and electrophoresed. Nuclear and cytoplasmic extracts are isolated using a conventional method (See, Jackson, (2006)). Immunoblotting is performed using the following antibodies: APE1 (Novus Biologicals; Littleton, Colo.), STAT1, STAT3, STAT5, p-STAT1(Y701), p-STAT3(Y705), p-STAT5 (Y694) (Cell Signaling; Danvers, Mass.), and tubulin (Sigma Aldrich) or GAPDH (Santa Cruz).
Biochemistry. […] That result is in contrast to what is observed with other compounds such as PI3K/Akt or mTOR.

STAT3, AP-1, and NF-κB = test: DNA binding and transcriptional activity of the target TFs of Ref-1; assay type: biochemical; details: STAT3, AP-1, NF-κB
Procedure: Electrophoretic mobility shift assay (EMSA). […] For the experiment of APE1 interacting with STAT3, purified APE1 protein is reduced with 2 mM DTT (dithiothreitol) for 10 min and diluted to a final concentration of 4 mg with 0.4 mM DTT in PBS. Reduced APE1 is added to 15 mg nuclear extract as above. The final concentration of DTT in redox reactions is 0.04 mM.

refractory T-ALL cells = test: xenograft model of leukemia; assay type: in vivo, NSG mice; details: b.i.d., one cycle of 5 days; for circulating blasts (human CD45+ cells in peripheral blood): p<0.05 vs vehicle
Procedure: Xenograft models of childhood relapse, refractory ALL. The antileukemia efficacy of Ref-1 redox blockade by the compounds described herein is evaluated in xenograft models of human ALL. In a first phase, the xenograft model with TAIL7 cells is used to test the therapeutic efficacy of the test compound as monotherapy, and in dual-agent regimens combining test compound with agents used as frontline chemotherapy for T-ALL (Vincristine; Doxorubicin; Dexamethasone) and for relapse T-ALL (Methotrexate). […] Such models of childhood ALL are used in immunodeficient mice (NOD/SCID: terminal leukemia in 70-120 d; NSG: terminal leukemia in 28-35 days with TAIL7 cells), including specimens from relapsed and infant ALL.
Xenografts of pediatric relapse T-cell leukemia: TAIL7 cells or cells from patients with relapse T-ALL (high cellularity; ≧90% BM involvement) will be used for the xenografts; patient specimens will be provided by Dr. Batra, according with IRB regulations. Leukemia cells (1×10^6 TAIL7 cells; 2-3×10^6 patient cells/mice) will be transplanted IV into NSG mice (7-9 wk old). 19, 24 Mice will be monitored weekly for presence of human blasts in the PB, by flow cytometry.
NSG mice (n=5/group) transplanted with refractory T-ALL cells. […] At the end of treatment, frequency of human CD45+ cells was performed in the peripheral blood (PB) and in the bone marrow (BM). Animals are sacrificed for analysis.

[2] = system: T-ALL lines from a murine model of T-cell leukemia induced by oncogenic Notch; test: ATP viability assay of leukemia cells from murine Notch-induced T-ALL; assay type: cell-based; details: Mus musculus, T-ALL lines from mice with terminal Notch-induced disease
From the text: (§2) The compounds described herein are effective against leukemia cells harvested from the bone marrow (BM), thymus (T) or spleen (S). Cells are harvested from the bone marrow (BM), thymus (T) or spleen (S) of mice with terminal Notch (ICN)-induced T-ALL, as determined in a conventional ATP assay (viability at 96 hrs) of the leukemia cells cultured with IL-7. […] Similar inhibition is observed in immortalized Jurkat, SupT1, MOLT4, and HPB-ALL cell lines derived from relapse T-ALL patients, with IC50s from 10-30 μM. Relapse T-ALL lines (Jurkat, SupT1, MOLT4, and HPB-ALL) are reportedly resistant to treatment with glucocorticoids. The compounds described herein are also effective against TAIL7-Dexamethasone resistant cells, which show reduced sensitivity to inhibitors of other leukemia-associated signaling pathways (such as PI3K/Akt, mTOR), and to cytotoxic chemotherapy drugs.

Survivin and Bcl-xL mRNA = test: quantitative PCR of survival genes; assay type: cell-based; details: after 24 h at doses between 25-40 μM
From the text: The compounds described herein caused a substantial downregulation of survival genes regulated by STAT3 and NF-κB, such as Survivin, Bcl-xL, and miR-21.

T-ALL cells [3] = test: Annexin V/PI assay of apoptosis; assay type: cell-based; details: E3330 […] μM or 40 μM, d1 to d5
From the text: The compounds described herein cause apoptosis of leukemia cells, including leukemia T-ALL cells.

[4] = system: Jurkat, SupT1, MOLT4, and HPB-ALL cell lines; test: viability of relapse T-ALL cell lines; assay type: cell-based; details: Homo sapiens; immortalized lines derived from relapse T-ALL patients
From the text: as §2

T-ALL cells [5] = test: potentiation of conventional drugs, ATP assay; assay type: cell-based; details: fixed dose 20 μM, compared to vehicle
From the text: The compounds described herein potentiate the efficacy of conventional drugs for treating leukemia, such as doxorubicin and STATTIC. […]

leukemia cells = test: leukemia cell survival; assay type: cell-based; details: primary cells from ALL patients, relapsed T-ALL, cells from murine Notch-induced leukemia
Procedure: as §1, with “The activity of other selective Ref-1 redox inhibitors are analyzed against leukemia cells according to conventional redox EMSA assays. See, Su, D. et al. Interactions of APE1 with a redox inhibitor: Evidence for an alternate conformation of the enzyme. Biochemistry” for “Biochemistry”

Sequence of Ref-1 (P27695 whole entry): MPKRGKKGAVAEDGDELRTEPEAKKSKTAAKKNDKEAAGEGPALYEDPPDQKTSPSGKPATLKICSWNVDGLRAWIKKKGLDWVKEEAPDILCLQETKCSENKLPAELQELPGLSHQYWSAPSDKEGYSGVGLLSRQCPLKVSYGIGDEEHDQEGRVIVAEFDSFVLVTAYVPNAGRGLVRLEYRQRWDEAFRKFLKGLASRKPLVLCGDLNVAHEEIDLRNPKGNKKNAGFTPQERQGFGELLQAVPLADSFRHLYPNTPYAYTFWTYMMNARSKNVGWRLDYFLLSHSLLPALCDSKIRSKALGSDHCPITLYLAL

Row | Structure (SMILES) | IC50 (Ref-1) [µM] | IC50 (TAIL7 cells) [µM] | MTD [1] [mg/kg] | activation status of other signaling pathways involved in T-ALL (STAT3) | phosphorylation state and nuclear translocation of STAT3 (STAT3) | DNA binding and transcriptional activity of the target TFs of Ref-1 (STAT3, AP-1, and NF-κB) | frequency of CD45+ in the BM (refractory T-ALL cells; 25 mg/kg/d) | circulating blasts (human CD45+ cells in peripheral blood) (refractory T-ALL cells; 25 mg/kg/d) | IC50 [2] [µM] | reduction in Survivin and Bcl-xL mRNA (Survivin and Bcl-xL mRNA) | leukemia cell apoptosis (T-ALL cells [3]) | IC50 [4] [µM] | potentiation of the activity of STATTIC (T-ALL cells [5]) | potentiation of the activity of doxorubicin (T-ALL cells [5]) | frequency of CD45+ in the BM (refractory T-ALL cells; 50 mg/kg/d) | circulating blasts (human CD45+ cells in peripheral blood) (refractory T-ALL cells; 50 mg/kg/d) | leukemia cell survival (leukemia cells)
1 | CCCC(=CC1=C(OC)C(=O)c2ccccc2C1=O)C(=O)N(C)C [Example 5e] | 2 | 5.5 | > 250 | do not affect | do not affect | disrupt |  |  |  |  |  |  |  |  |  |  | 
2 | CCCC(=CC1=C(OC)C(=O)c2ccccc2C1=O)C(=O)N(CC)CC [Example 5c] | 1 | 4.2 | > 250 | do not affect | do not affect | disrupt | marked decrease | significant reduction |  |  |  |  |  |  |  |  | 
3 | CCCCCCCCC/C(=C\C1=C(C)C(=O)C(OC)=C(OC)C1=O)C(=O)O [Example E3330] |  | 29.7 | > 250 | do not affect | do not affect | disrupt |  |  | 20 to 30 | 2-10 fold | significant leukemia cell apoptosis; also recorded: induces leukemia cell apoptosis | 10 to 30 | potentiates | potentiates | marked decrease | significant reduction | markedly inhibits
4 | COC1=C(C=C(C)C(=O)N(C)C)C(=O)c2ccccc2C1=O [Example 5a] | 1 | 5.5 | > 250 | do not affect | do not affect | disrupt |  |  |  |  |  |  |  |  |  |  | 
